Earlier results, collected in patent US20240197646A1, “DRUG DELIVERY SYSTEM AND METHODS OF USING THE SAME” (Axogen Corporation, priority 2022, published 2024).

Conditions: stated reference level, no source or test given

C=CC[C@@H]1/C=C(\C)C[C@H](C)C[C@H](OC)[C@H]2O[C@@](O)(C(=O)C(=O)N3CCCC[C@H]3C(=O)O[C@H](/C(C)=C/[C@@H]3CC[C@@H](O)[C@H](OC)C3)[C@H](C)[C@@H](O)CC1=O)[C@H](C)C[C@@H]2OC [FK506]
toxic dose: about 5 mg/ml
